PubChem BioAssay (NCI)
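1) Cells in 96-well plates. 2) Compound, 48 h, 5 concentrations. 3) Linear interpolation between surrounding doses. 4) Unreached endpoint = highest concentration. Definition used: TGI = concentration required for complete inhibition of growth.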

Experiments:
Experiment in all cases: inhibition of tumour cell growth, NCI panel, 48 h
[1] = test system: 786-0 renal
[2] = test system: A498 renal
[3] = test system: A549 NSCLC
[4] = test system: ACHN renal
[5] = test system: BT-549 breast
[6] = test system: CAKI-1 renal
[7] = test system: CCRF-CEM leukemia
[8] = test system: COLO 205 colon
[9] = test system: DU-145 prostate
[10] = test system: EKVX NSCLC
[11] = test system: HCC-2998 colon
[12] = test system: HCT-116 colon
[13] = test system: HCT-15 colon
[14] = test system: HOP-62 NSCLC
[15] = test system: HOP-92 NSCLC
[16] = test system: HS 578T breast
[17] = test system: HT29 colon
[18] = test system: IGROV1 ovarian
[19] = test system: K-562 leukemia
[20] = test system: KM12 colon
[21] = test system: LOX IMVI melanoma
[22] = test system: M14 melanoma
[23] = test system: MALME-3M melanoma
[24] = test system: MCF7 breast
[25] = test system: MDA-MB-231 breast
[26] = test system: MDA-MB-435
[27] = test system: MOLT-4 leukemia
[28] = test system: NCI-H226 lung
[29] = test system: NCI-H23 lung
[30] = test system: NCI-H460 lung
[31] = test system: NCI-H522 lung
[32] = test system: NCI/ADR-RES ovarian
[33] = test system: OVCAR-3 ovarian
[34] = test system: OVCAR-4 ovarian
[35] = test system: OVCAR-5 ovarian
[36] = test system: OVCAR-8 ovarian
[37] = test system: PC-3 prostate
[38] = test system: RPMI-8226 leukemia
[39] = test system: RXF 393 renal
[40] = test system: SF-268 CNS
[41] = test system: SF-295 CNS
[42] = test system: SF-539 CNS
[43] = test system: SK-MEL-2 melanoma
[44] = test system: SK-MEL-28 melanoma
[45] = test system: SK-OV-3 ovarian
[46] = test system: SN12C renal
[47] = test system: SNB-19 CNS
[48] = test system: SNB-75 CNS
[49] = test system: SW-620 colon
[50] = test system: T-47D breast
[51] = test system: TK-10 renal
[52] = test system: U251 CNS
[53] = test system: UACC-257 melanoma
[54] = test system: UACC-62 melanoma
[55] = test system: UO-31 renal

SMILES: CSc1nc(Cl)c2c(n1)Sc1nc3cc4c(cc3n1C2O)OCCO4 (stereo not given)
- TGI [1]: 14.9 µM
- TGI [2]: 15.9 µM
- TGI [3]: 14 µM
- TGI [4]: 26.8 µM
- TGI [5]: 23.3 µM
- TGI [6]: 1.21 µM
- TGI [7]: 3.76 µM
- TGI [8]: 0.142 µM
- TGI [9]: 15.9 µM
- TGI [10]: 36.3 µM
- TGI [11]: 12.1 µM
- TGI [12]: 26.6 µM
- TGI [13]: 11.1 µM
- TGI [14]: 23 µM
- TGI [15]: 4.41 µM
- TGI [16]: 23.6 µM
- TGI [17]: 18.9 µM
- TGI [18]: 18 µM
- TGI [19]: 17.6 µM
- TGI [20]: > 100 µM
- TGI [21]: 0.392 µM
- TGI [22]: 15.5 µM
- TGI [23]: 32.6 µM
- TGI [24]: 27.7 µM
- TGI [25]: 34.3 µM
- TGI [26]: > 100 µM
- TGI [27]: 16.7 µM
- TGI [28]: 0.889 µM
- TGI [29]: 19.9 µM
- TGI [30]: 2.39 µM
- TGI [31]: 0.386 µM
- TGI [32]: 0.407 µM
- TGI [33]: 2.46 µM
- TGI [34]: 44.2 µM
- TGI [35]: 36 µM
- TGI [36]: 3.03 µM
- TGI [37]: 65.2 µM
- TGI [38]: 2 µM
- TGI [39]: 19.3 µM
- TGI [40]: 80.3 µM
- TGI [41]: 38.5 µM
- TGI [42]: 0.0867 µM
- TGI [43]: 29.2 µM
- TGI [44]: 21.7 µM
- TGI [45]: > 53.4 µM
- TGI [46]: 46.6 µM
- TGI [47]: 3.99 µM
- TGI [48]: 36.4 µM
- TGI [49]: 25.2 µM
- TGI [50]: 65.3 µM
- TGI [51]: 32.9 µM
- TGI [52]: 14.3 µM
- TGI [53]: 36.1 µM
- TGI [54]: 7.87 µM
- TGI [55]: 16 µM
